US4218472A, “Geminally disubstituted indene derivatives” (AB Kabi, priority 1977, dated 1980)
Where two headings read alike, the source gives them in different places.

What was measured:
Assay type in all cases: cell-based
[1] = system: rat vas deferens; experiment: Effect on Rat Isolated Vas Deferens; settings: for minimal effective concentration: read-out: threshold conc.; for Emax: read-out: max. effect, % of NA max.; for effect on rat vas deferens (in words): noradrenaline-like activity
Text: Effect on Rat Isolated Vas Deferens
Male albino rats weighing 250-350 g were anaesthetized with diethyl ether and then decapitated. The vas deferens was removed, freed from mesenteric attachments and then suspended in Kreb's bicarbonate solution (Hukovic, 1961). Threads were attached to both ends of the organ. The distal part was tied to a fixed pin in the organ bath and the proximal part to a force displacement transducer connected to a recording system. […] The load on the organ was adjusted to 0.5 g. The vas deferens was allowed to stabilize for 15 minutes before dose-response curves were obtained.
The technique for making cumulative dose-response curves in accordance with van Rossum (1963) was employed. The stimulating drug, noradrenaline (NA), was added to the bath in a manner to achieve geometrically increasing concentrations in the organ bath without washings in between. After each injection of NA the organ was allowed to contract until a state of equilibrium had been reached, and then the next dose of NA was added. This procedure was repeated until no further increase in contraction was obtained. The dosage of NA was adapted to give a concentration step in the bath of 1/2 log 10. The tested concentration interval was 10^-8 -10^-4 M, 3.10^-4 M plus maximum effect at 3 10^-5 and 10^-4 M. Compounds of formula I, identified as 2-12, and comparison compounds 13-15, were tested by the same technique. The compounds conform to the formula below except where indicated for other values of R^1, R^2 and R^3.

[2] = system: aortic strip (rabbit); experiment: Effect on aortic strip of rabbit; settings: Oryctolagus cuniculus
Protocol: (§1) Effect on urethra strip of cat and aortic strip of rabbit Adult male and female cats weighing 2-5 kg were used. The animals were anaesthetized with pentobarbital, 30-50 mg/kg intraperitoneally. An abdominal incision was made and the bladder and urethra were dissected free and cut. The bladder and urethra were placed in Tyrode solution of room temperature. Care was taken to keep the tissue moist during the preparation. The bladder was cut away and the urethra was cut longitudinally. Segments of 2-3 mm width were mounted in an organ-bath with Tyrode solution at 37° C. and connected to a strain gauge transducer so that the isometric tension could be recorded. The preparation was maintained at pH 7.5 by bubbling a mixture of 93.5 volume-% O2 and 6.5 volume-% CO2 through the solution. This experimental set up thus allowed the recording of circular muscle activity as isometric tension changes. The initial tension was set at approximately 0.5 g. After mounting, the preparation was allowed 1 hour for acclimatization before starting the experiment. All recordings were made from the base line. The drugs were added directly to the organ-baths and cumulative dose-response curves were recorded. Noradrenaline has consistently been used as a reference drug for agonistic action. The substances tested as agonists were noradrenaline bitartrate (NA) and the above compound No. 3. […]

[3] = system: urethra strip (cat); experiment: Effect on urethra strip of cat; settings: Felis catus, isometric tension, Tyrode solution 37° C., pH 7.5
Protocol: as §1

[4] = rat isolated vas deferens, contraction relative to noradrenaline maximum
[5] = rat isolated vas deferens, cumulative dose-response, 31° C.
[6] = Rattus norvegicus, rat isolated vas deferens, cumulative dose-response, 31° C.

EC50 [1, 5] [µM]	Molecule	minimal effective concentration [1, 6] [µM]	Emax [1, 4] [%]	also measured
0.15	CNCC(O)C1=CC2(CCCC2)c2ccccc21 (racemic) [No. 3, 2-Methylamino-1-[spiro(cyclopentane-1,1'-indene)-3'-yl]ethanol]	0.03	100	EC50 [2]: 0.045 µM; EC50 [3]: 0.69 µM
40	NCC(O)C1=CC2(CCCC2)c2ccccc21 (stereo not drawn) [No. 2, 2-Amino-1-[spiro(cyclopentane-1,1'-indene)-3'-yl]ethanol]	0.1	100	–
1.5	CCNCC(O)C1=CC2(CCCC2)c2ccccc21 (stereo not drawn) [No. 4, 2-Ethylamino-1-[spiro(cyclopentane-1,1'-indene)-3'-yl]ethanol]	0.5	85	–
4	CC(C)NCC(O)C1=CC2(CCCC2)c2ccccc21 (stereo not drawn) [No. 6]	–	90	–
15	NCC(O)C1=CC2(CCC2)c2ccccc21 (stereo not drawn) [No. 7]	–	120	–
2	CC1(C)C=C(C(O)CN)c2ccccc21 (stereo not drawn) [No. 8, 2-Amino-1-(1,1-dimethylindene-3-yl)ethanol]	0.3	100	–
15	NCC(O)C1=CC2(CCCCC2)c2ccccc21 (stereo not drawn) [No. 9, 2-Amino-1-[spiro(cyclohexane-1,1'-indene)-3'-yl]ethanol]	3	70	–

The remaining lines, values behind:

Molecule	EC50 [1, 5] [µM]	minimal effective concentration [1, 6] [µM]	Emax [1, 4] [%]	also measured
2-Isopropylamino-1-[spiro(cyclopentane-1,1'-indene)-3'-yl]ethanol [Example 12]	–	–	–	max. effect, % of NA max. [1, 4]: 35%
2-Pyrrolidino-1-[spiro)cyclopentane-1,1'-indene)-3'-yl]-ethanol [Example 5]	–	–	–	max. effect, % of NA max. [1, 4]: 50%; threshold conc. [1, 5]: 10^-5 - 10^-4 M
2-tert.-Butylamino-1-[spiro(cyclopentane-1,1'-indene)-3'-yl]ethanol [Example 11]	–	–	–	max. effect, % of NA max. [1, 4]: 90%
NC[C@H](O)c1ccc(O)c(O)c1 [No. 1, noradrenaline, reference compound]	30	1	100	EC50 [2]: 0.18 µM; EC50 [3]: 27 µM
COc1ccc2c(c1)C(C(O)CN)=CC21CCCC1 (stereo not drawn) [No. 10, 2-Amino-1-[5'-methoxyspiro(cyclopentane-1,1'-indene)-3'-yl]-ethanol]	50	5	65	–
CN(C)CC(=O)C1=CC2(CCCC2)c2ccccc21 [No. 13, reference compound]	–	–	0	effect on rat vas deferens (in words) [1]: inactive
CNCC(O)C1CC2(CCCC2)c2ccccc21 (stereo not drawn) [No. 14, reference compound]	–	–	0	effect on rat vas deferens (in words) [1]: effect disappears
CNCCC1=CC2(CCCC2)c2ccccc21 [No. 15, reference compound]	–	–	–	Emax ([1]; Rattus norvegicus): 0%; effect on rat vas deferens (in words) [1]: effect disappears
